Publication PMC5050486 (Scientific Reports, 2016)
“Also recorded” adds a separate entry of the source. Structures can show the parent of a compound that is named as a salt. Where two headings read alike, the source gives them in different places. Where a SMILES comes first, the peptide text is derived from it. Where no end group is shown, it is not given here.

What was measured:
human furin = target: T1, human furin (Homo sapiens, UniProt P09958); test: Host protease FRET test, furin; type: biochemical; conditions: for inhibition at 33 µM: read-out: Percent Inhibition with 33 μM of drug, Furin
T1 construct: purchased New England Biolabs
T1 sequence (P09958 108-794): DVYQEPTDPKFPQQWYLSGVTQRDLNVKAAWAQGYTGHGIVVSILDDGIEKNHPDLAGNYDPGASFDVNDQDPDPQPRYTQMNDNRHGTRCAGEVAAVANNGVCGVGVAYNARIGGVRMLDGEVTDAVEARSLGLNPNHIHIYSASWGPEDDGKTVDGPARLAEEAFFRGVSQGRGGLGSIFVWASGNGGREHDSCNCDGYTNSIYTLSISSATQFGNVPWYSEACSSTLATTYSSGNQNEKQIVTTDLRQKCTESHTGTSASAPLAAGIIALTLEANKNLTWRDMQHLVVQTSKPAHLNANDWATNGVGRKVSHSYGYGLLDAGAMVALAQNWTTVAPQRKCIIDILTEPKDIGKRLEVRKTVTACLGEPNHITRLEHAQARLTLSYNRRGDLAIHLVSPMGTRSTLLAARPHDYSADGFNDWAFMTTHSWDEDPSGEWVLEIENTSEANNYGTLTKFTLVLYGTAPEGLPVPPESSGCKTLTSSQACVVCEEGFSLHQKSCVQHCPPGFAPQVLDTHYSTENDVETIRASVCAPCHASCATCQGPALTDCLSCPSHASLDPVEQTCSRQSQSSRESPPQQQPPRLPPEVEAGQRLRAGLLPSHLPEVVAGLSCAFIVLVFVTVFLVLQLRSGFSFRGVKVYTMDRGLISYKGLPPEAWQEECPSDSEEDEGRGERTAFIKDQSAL

calpain 1 = target: T2, calpain 1 (Homo sapiens, UniProt P07384); test: Host protease FRET test, calpain; type: biochemical; conditions: for inhibition at 33 µM: read-out: Percent Inhibition with 33 μM of drug, Calpain
T2 construct: purchased BioVision
T2 sequence (P07384 1-714): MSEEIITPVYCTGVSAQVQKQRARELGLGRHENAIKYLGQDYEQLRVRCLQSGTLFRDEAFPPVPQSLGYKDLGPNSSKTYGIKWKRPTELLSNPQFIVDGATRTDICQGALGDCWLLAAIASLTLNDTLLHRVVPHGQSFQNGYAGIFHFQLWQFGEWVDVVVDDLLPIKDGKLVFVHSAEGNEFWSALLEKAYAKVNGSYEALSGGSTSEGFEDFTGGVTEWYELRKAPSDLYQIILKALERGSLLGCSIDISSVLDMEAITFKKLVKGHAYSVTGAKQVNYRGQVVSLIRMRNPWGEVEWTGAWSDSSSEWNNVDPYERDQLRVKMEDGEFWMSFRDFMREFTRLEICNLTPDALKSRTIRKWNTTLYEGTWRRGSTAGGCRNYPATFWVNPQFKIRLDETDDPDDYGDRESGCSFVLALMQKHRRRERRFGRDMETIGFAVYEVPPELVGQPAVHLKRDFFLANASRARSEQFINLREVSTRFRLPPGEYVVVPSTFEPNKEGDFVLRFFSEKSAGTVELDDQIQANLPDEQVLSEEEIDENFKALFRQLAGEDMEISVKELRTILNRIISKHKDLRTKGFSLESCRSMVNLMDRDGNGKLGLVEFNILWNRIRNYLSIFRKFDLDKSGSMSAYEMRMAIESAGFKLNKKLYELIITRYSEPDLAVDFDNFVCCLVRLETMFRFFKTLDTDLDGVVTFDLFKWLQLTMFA
T2 sequence (P04632 1-268 partner): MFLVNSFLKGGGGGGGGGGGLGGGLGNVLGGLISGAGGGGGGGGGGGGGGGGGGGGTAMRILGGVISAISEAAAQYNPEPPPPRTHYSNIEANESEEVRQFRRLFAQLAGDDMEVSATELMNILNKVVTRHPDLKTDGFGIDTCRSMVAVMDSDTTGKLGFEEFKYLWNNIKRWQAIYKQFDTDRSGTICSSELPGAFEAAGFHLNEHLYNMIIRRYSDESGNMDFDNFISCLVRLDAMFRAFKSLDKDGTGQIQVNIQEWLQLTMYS

cathepsin B = cathepsin B (Homo sapiens, UniProt P07858); test: Host protease FRET test, cathepsin B; type: biochemical; conditions: 33 μM drug, N/I = no FRET inhibition; for inhibition at 33 µM: read-out: Percent Inhibition with 33 μM of drug, Cath B
anthrax LF = anthrax LF (Bacillus anthracis, UniProt P15917); test: biochemical; conditions: for inhibition at 33 µM: read-out: Percent Inhibition with 33 μM of drug, LF
anthrax LF, sequence (P15917 34-809 limits assumed): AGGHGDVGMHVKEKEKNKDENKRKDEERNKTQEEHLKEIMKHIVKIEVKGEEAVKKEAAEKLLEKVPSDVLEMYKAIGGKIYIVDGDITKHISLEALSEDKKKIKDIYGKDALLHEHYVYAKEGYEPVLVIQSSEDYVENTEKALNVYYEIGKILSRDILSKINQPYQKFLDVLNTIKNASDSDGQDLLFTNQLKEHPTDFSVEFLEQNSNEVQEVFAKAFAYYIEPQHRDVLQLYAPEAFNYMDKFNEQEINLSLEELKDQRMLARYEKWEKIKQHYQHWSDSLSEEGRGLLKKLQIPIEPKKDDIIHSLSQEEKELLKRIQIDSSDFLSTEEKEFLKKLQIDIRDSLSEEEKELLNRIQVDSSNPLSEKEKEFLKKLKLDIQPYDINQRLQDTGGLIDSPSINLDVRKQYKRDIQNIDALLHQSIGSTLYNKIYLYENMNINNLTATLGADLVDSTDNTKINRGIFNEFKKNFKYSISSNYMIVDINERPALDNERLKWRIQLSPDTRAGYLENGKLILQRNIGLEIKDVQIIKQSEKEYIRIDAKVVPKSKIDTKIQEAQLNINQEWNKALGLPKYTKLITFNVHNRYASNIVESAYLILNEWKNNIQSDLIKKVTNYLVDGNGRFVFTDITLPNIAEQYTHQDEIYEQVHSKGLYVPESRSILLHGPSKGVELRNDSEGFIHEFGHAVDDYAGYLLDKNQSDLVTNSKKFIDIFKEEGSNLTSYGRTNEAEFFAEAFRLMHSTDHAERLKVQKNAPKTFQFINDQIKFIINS

caspase-1 = target: T3, caspase-1 (Homo sapiens, UniProt P29466); test: Host protease FRET test, caspase-1; type: biochemical; conditions: read-out: Percent Inhibition with 33 μM of drug, Casp 1
T3 construct: purchased BioVision
T3 sequence (P29466 120-404): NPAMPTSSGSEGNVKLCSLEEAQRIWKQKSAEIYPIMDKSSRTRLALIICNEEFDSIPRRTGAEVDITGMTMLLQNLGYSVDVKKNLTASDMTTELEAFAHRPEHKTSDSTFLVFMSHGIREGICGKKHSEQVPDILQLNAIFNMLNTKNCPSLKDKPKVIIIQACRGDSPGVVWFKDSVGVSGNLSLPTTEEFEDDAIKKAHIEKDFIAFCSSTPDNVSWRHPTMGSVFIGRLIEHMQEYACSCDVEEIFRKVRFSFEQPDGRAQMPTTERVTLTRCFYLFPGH

caspase-3 = target: T4, caspase-3 (Homo sapiens, UniProt P42574); test: Host protease FRET test, caspase-3; type: biochemical; conditions: for inhibition at 33 µM: read-out: Percent Inhibition with 33 μM of drug, Casp 3
T4 construct: purchased BioVision
T4 sequence (P42574 29-277): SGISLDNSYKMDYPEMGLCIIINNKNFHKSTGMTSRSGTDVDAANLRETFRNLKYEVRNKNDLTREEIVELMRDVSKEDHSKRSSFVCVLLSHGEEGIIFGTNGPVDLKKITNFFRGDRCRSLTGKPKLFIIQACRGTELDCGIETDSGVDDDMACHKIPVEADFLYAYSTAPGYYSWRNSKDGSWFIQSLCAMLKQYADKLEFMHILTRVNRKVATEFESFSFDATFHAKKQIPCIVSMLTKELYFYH

[1] = system: LF-PA treated mouse macrophage RAW264.7 cells; type: cell-based
[2] = system: Cholera toxin treated RAW264.7 cells; type: cell-based, mouse
[3] = system: Pseudomonas aeruginosa exotoxin A treated RAW264.7 cells; type: cell-based, mouse
[4] = cited from earlier work
[5] = system: LF-PA63 treated RAW264.7 cells; type: cell-based, mouse
[6] = 33 μM drug, FRET, N/I = no FRET inhibition

| Compound | inhibition at 33 µM (human furin; [6]) [%] | IC50 (anthrax LF) [nM] | inhibition at 33 µM (anthrax LF) [%] | inhibition at 33 µM (caspase-1; [6]) [%] | further results |
| --- | --- | --- | --- | --- | --- |
| CCCCCCCCCCCC[N+](C)(C)CCOc1ccccc1 [Domiphen bromide] | 7 ± 6.64 | 290 ± 30 | 103 ± 0.82 | 17 ± 2.17 | Percent Inhibition with 33 μM of drug, Calpain (calpain 1; [6]): N/I; inhibition at 33 µM (cathepsin B): 23 ± 1.5%; Percent Inhibition with 33 μM of drug, Casp 3 (caspase-3; [6]): N/I |
| PVRRRRRPRVSR [Salmon Sperm Protamine (11-22)] | 84 ± 33 | 5000 ± 130 | 95 ± 0.1 |  |  |
| MPRRRRSSSRPVRRRRRPRVSR [Salmon Sperm Protamine (1-22)] | 91 ± 1.8 | 1000 ± 40 | 98 ± 0.6 |  |  |
| MPRRRRSSSR [Salmon Sperm Protamine (1-10)] |  | 298000 ± 10 | 28 ± 1 |  | Percent Inhibition with 33 μM of drug, Furin (human furin; [6]): N/I |
| CCCCCCCCCCCCCCCC(=O)OC[C@H](O)[C@H]1OC(=O)C(O)=C1O [Ascorbic acid 6-palmitate] | 16 ± 0.67 | 460 ± 260 | 99 ± 1.9 | 18 ± 1.12 | inhibition at 33 µM (calpain 1; [6]): 24 ± 19.4%; Protection against LF-PA mediated cell killing [1]: complete protection; Percent Inhibition with 33 μM of drug, Cath B (cathepsin B): N/I; Protection against CT-mediated cell killing [2]: substantial protection; Protection against PE-mediated cell killing [3]: substantial protection; inhibition at 33 µM (caspase-3; [6]): 88 ± 2.9%; Critical Micelle Concentration (CMC) [4]: 0.8 mM |
| QRQRSRRRRRRSCQTRR [Human Sperm Protamine (18-34)] |  | 24000 ± 150 | 72 ± 2.1 |  |  |
| CSCC[C@H](NC(=O)[C@H](C)NC(=O)[C@@H](N)CCCNC(=N)N)C(=O)N[C@@H](CCCNC(=N)N)C(=O)N[C@@H](CS)C(=O)N[C@@H](CS)C(=O)N[C@@H](CCCNC(=N)N)C(=O)N1CCC[C@H]1C(=O)N[C@@H](CCCNC(=N)N)C(=O)N[C@@H](Cc1ccc(O)cc1)C(=O)N[C@@H](CCCNC(=N)N)C(=O)N1CCC[C@H]1C(=O)N[C@@H](CCCNC(=N)N)C(=O)N[C@@H](CS)C(=O)N[C@@H](CCCNC(=N)N)C(=O)N[C@@H](CCCNC(=N)N)C(=O)N[C@@H](Cc1c[nH]cn1)C(=O)O [Human Sperm Protamine (35-51)] (H-RAMRCCRPRYRPRCRRH-OH; N-terminus and C-terminus assumed) |  |  | 55 ± 0.9 |  |  |
| CCCCCCCCCCCCc1ccccc1S(=O)(=O)O [Sodium dodecyl benzenesulfonate] | 6 ± 3.34 |  | 104 ± 0.4 | 14 ± 2.06 | inhibition at 33 µM (calpain 1; [6]): 26 ± 7.01%; inhibition at 33 µM (cathepsin B): 96 ± 2.5%; IC50 (anthrax LF; read-out: LF IC50): 590 ± 80 nM; inhibition at 33 µM (caspase-3; [6]): 77 ± 2.5% |
| MARYRCCRSQSRSRYYRQRQRSRRRRRRSCQTRRRAMRCCRPRYRPRCRRH (cysteines drawn unpaired) [Human Sperm Protamine (1-51)] | 97 ± 1.7 |  | 88 ± 1.2 |  |  |
| RRRRRGGRRRR [Salmon Sperm Protamine (23-33)] | 150 ± 5.3 | 15000 ± 10 | 93 ± 2.4 |  |  |
| CSCC[C@H](N)C(=O)N[C@@H](C)C(=O)N[C@@H](CCCNC(=N)N)C(=O)N[C@@H](Cc1ccc(O)cc1)C(=O)N[C@@H](CCCNC(=N)N)C(=O)N[C@@H](CS)C(=O)N[C@@H](CS)C(=O)N[C@@H](CCCNC(=N)N)C(=O)N[C@@H](CO)C(=O)N[C@@H](CCC(N)=O)C(=O)N[C@@H](CO)C(=O)N[C@@H](CCCNC(=N)N)C(=O)N[C@@H](CO)C(=O)N[C@@H](CCCNC(=N)N)C(=O)N[C@@H](Cc1ccc(O)cc1)C(=O)N[C@@H](Cc1ccc(O)cc1)C(=O)N[C@@H](CCCNC(=N)N)C(=O)O [Human Sperm Protamine (1-17)] (H-MARYRCCRSQSRSRYYR-OH; N-terminus and C-terminus assumed) |  |  | 37 ± 0.7 |  |  |
| CCCCC(CC)COC(=O)CC(C(=O)OCC(CC)CCCC)S(=O)(=O)O (stereo not shown) [Docusate sodium] | 69 ± 0.13 | 670 ± 50 | 95 ± 0.28 | 35 ± 0.01 | inhibition at 33 µM (calpain 1; [6]): 130 ± 0.19%; Percent Inhibition with 33 μM of drug, Cath B (cathepsin B): N/I; Percent Inhibition with 33 μM of drug, Casp 3 (caspase-3; [6]): N/I |
| CCCCCCCCCCCCOS(=O)(=O)O [Sodium lauryl sulfate] |  | 2900 ± 80 | 93 ± 0.57 |  | inhibition at 33 µM (human furin): 2 ± 4.56%; inhibition at 33 µM (calpain 1): 95 ± 6.02%; inhibition at 33 µM (caspase-1): 7 ± 3.06%; inhibition at 33 µM (caspase-3): 83 ± 2.7%; Critical Micelle Concentration (CMC) [4]: 8 mM |
| CCCCCCCCCCCCCCCC[N+](C)(C)Cc1ccccc1 [Cetalkonium chloride] | 8 ± 6.1 | 160 ± 90 | 106 ± 1.21 | 32 ± 1.17 | inhibition at 33 µM (calpain 1; [6]): 68 ± 14.8%; Percent Inhibition with 33 μM of drug, Cath B (cathepsin B): N/I; Percent Inhibition with 33 μM of drug, Casp 3 (caspase-3; [6]): N/I |
| CCOc1nc2cccc(C(=O)OC(C)OC(=O)OC3CCCCC3)c2n1Cc1ccc(-c2ccccc2-c2nnn[nH]2)cc1 (stereo not shown) [Candesartan cilexetil] | 88 ± 0.12 | 400 ± 20 | 100 ± 0.07 | 16 ± 0.1 | Percent Inhibition with 33 μM of drug, Calpain (calpain 1; [6]): N/I; inhibition at 33 µM (cathepsin B): 10 ± 3.1%; Percent Inhibition with 33 μM of drug, Casp 3 (caspase-3; [6]): N/I |
| PVRRRRRPRVSRRRRRRGGRRRR [Salmon Sperm Protamine (11-33)] | 86 ± 1.2 | 10000 ± 40 | 99 ± 0.2 |  |  |
| MPRRRRSSSRPVRRRRRPRVSRRRRRRGGRRRR [Salmon Sperm Protamine] | 96 ± 1.2 |  | 107 ± 1.4 |  | Protection against cell death induced by LF and PA63 [5]: reduces cellular sensitivity; also recorded: effectively protected all cells; Protection against LF-PA mediated cell killing [1]: complete protection; inhibition at 33 µM (cathepsin B): 65 ± 0.5%; Protection against CT-mediated cell killing [2]: substantial protection; Protection against PE-mediated cell killing [3]: substantial protection; inhibition at 33 µM (caspase-3; [6]): 87 ± 2.8% |
